From patent publication US20100322882A1, “SOLUBILIZING AGENTS FOR ACTIVE OR FUNCTIONAL ORGANIC COMPOUNDS” (ISP INVESTMENTS INC., priority 2006, published 2010) come the findings set out here.

Series [1] in a line: Solubility of solid organic sunscreens in solubilizers (25° C.). In kind it is physicochemical. As to conditions: for Solubility of MBC in the solvent: solute 4-Methylbenzylidene camphor (MBC); for Solubility of E-517 (Avobenzone) in the solvent: solute Avobenzone (E-517); for Solubility of BEMT in the solvent: solute Bis-ethylhexyloxyphenol methoxyphenyl triazine (BEMT); for Solubility of EHT in the solvent: solute Ethylhexyl triazone (EHT); for Solubility of E-567 (Oxybenzone) in the solvent: solute Oxybenzone (E-567). The method, then: Upon cooling to 25° C., a few seed crystals (<10 mg) of the sunscreen were added to hasten equilibration. The solutions were stored in the dark in a constant temperature chamber at 25° C. Each was sampled weekly, and the ca. 0.1 g sample was filtered through a 0.45μ syringe filter and analyzed by GLC or HPLC, calibrated using standard solutions, until the value for wt. % of solute was constant.

Series [2] in a line: UV absorption spectra of sunscreens in selected solvents. It counts as physicochemical. On the set-up: λmax of E-517 / λmax of E-567 / λmax of BEMT / λmax of EHT: unit not given here. As to conditions: for ε of BEMT at λmax / λmax of BEMT: 10 mg/L BEMT in the solvent; for ε of E-517 at λmax / λmax of E-517: 10 mg/L E-517 in the solvent; for ε of E-567 at λmax / λmax of E-567: 10 mg/L E-567 in the solvent; for ε of EHT at λmax / λmax of EHT: 10 mg/L EHT in the solvent; for ε of MBC at λmax / λmax of MBC: 10 mg/L MBC in the solvent. The method, then:
Solutions containing 10 mg/L of sunscreen in selected solvents were prepared, and their UV spectra were measured using a Cary 1E UV-Visible spectrophotometer. […] They are also higher in 2-phenylethyl cyclohexanoate for Escalol® 517 and Escalol® 567.

Setting [3] is: second (shorter wavelength) band.

Take `CCC(=O)OC(C)c1ccccc1` (stereo not shown) [1-phenylethyl propionate]: in series [1], the “Solubility of MBC in the solvent” value is 44 wt. %, the “Solubility of E-517 (Avobenzone) in the solvent” value (shortened to “Solubility of E-517 (Avobenzone)”) was 23 wt. %, the “Solubility of BEMT in the solvent” value is reported as 26 wt. % and the “Solubility of EHT in the solvent” value was 10 wt. %. Moreover, in series [1], the “Solubility of E-567 (Oxybenzone) in the solvent” value (“Solubility of E-567 (Oxybenzone)” below) came to 38 wt. %.
As for `CCC(=O)OCCOc1ccccc1` [2-phenoxyethyl propionate], in series [1], the “Solubility of MBC in the solvent” value was determined as 39 wt. %, the “Solubility of E-517 (Avobenzone)” value is recorded as 21 wt. %, the “Solubility of BEMT in the solvent” value was 13 wt. % and the “Solubility of EHT in the solvent” value worked out at 6 wt. %. The “Solubility of E-567 (Oxybenzone)” value in series [1] was 38 wt. %.
Turning to `CCCCC(CC)C(=O)OCCc1ccccc1` (stereo not shown) [2-phenylethyl 2-ethylhexanoate], in series [1], the “Solubility of MBC in the solvent” value is 34 wt. %, the “Solubility of E-517 (Avobenzone)” value is listed as 17 wt. %, the “Solubility of BEMT in the solvent” value worked out at 18 wt. % and the “Solubility of EHT in the solvent” value was found to be 4 wt. %. Moreover, in series [1], the “Solubility of E-567 (Oxybenzone)” value was found to be 25 wt. %.
Turning to `CC(=O)OCCc1ccccc1` [2-phenylethyl acetate], in series [1], the “Solubility of MBC in the solvent” value is listed as 44 wt. %, the “Solubility of E-517 (Avobenzone)” value is reported as 26 wt. %, the “Solubility of BEMT in the solvent” value came to 26 wt. % and the “Solubility of EHT in the solvent” value is given as 14 wt. %. Moreover, the “Solubility of E-567 (Oxybenzone)” value in series [1] was determined as 44 wt. %.
In the case of `O=C(OCCc1ccccc1)C1CCCCC1` [2-phenylethyl cyclohexanoate, 2-Phenylethyl Cyclohexanecarboxylate], in series [2] (first (longer wavelength) band), the “ε of BEMT at λmax” value is reported as “(49,000)”, the “λmax of BEMT” value stood at 345, the “ε of E-517 at λmax” value is recorded as “(34,500)” and the “λmax of E-517” value turned out to be 359. In addition, in series [2] (first (longer wavelength) band), the “ε of E-567 at λmax” value was “(12,100)” and the “λmax of E-567” value is 326. Moreover, in series [2] (setting [3]), the “ε of EHT at λmax” value is listed as “(47,300)”, the “λmax of EHT” value was 317, the “ε of MBC at λmax” value is reported as “(10,400)” and the λmax of MBC amounted to 317 nm. Also, in series [1], the “Solubility of MBC in the solvent” value came to 37 wt. %, the “Solubility of E-517 (Avobenzone)” value was found to be 20 wt. %, the “Solubility of BEMT in the solvent” value was determined as 32 wt. % and the “Solubility of EHT in the solvent” value came out at 10 wt. %. For the same compound, the “Solubility of E-567 (Oxybenzone)” value in series [1] is given as 32 wt. %.
Regarding `O=C(OCCc1ccccc1)C1CC1` [2-phenylethyl cyclopropanoate, 2-Phenylethyl Cyclopropanecarboxylate], in series [1], the “Solubility of MBC in the solvent” value is recorded as 42 wt. %, the “Solubility of E-517 (Avobenzone)” value amounted to 24 wt. %, the “Solubility of BEMT in the solvent” value is recorded as 27 wt. % and the “Solubility of EHT in the solvent” value came to 16 wt. %. In addition, the “Solubility of E-567 (Oxybenzone)” value in series [1] is on record as 39 wt. %.
For `CC(C)(C)C(=O)OCCc1ccccc1` [2-phenylethyl neopentanoate], in series [1], the “Solubility of MBC in the solvent” value is 38 wt. %, the “Solubility of E-517 (Avobenzone)” value was 19 wt. %, the “Solubility of BEMT in the solvent” value stood at 28 wt. % and the “Solubility of EHT in the solvent” value is given as 5 wt. %. The “Solubility of E-567 (Oxybenzone)” value in series [1] was 29 wt. %.
Consider `CCCCCCCC(=O)OCCc1ccccc1` [2-phenylethyl octanoate], for which, in series [1], the “Solubility of MBC in the solvent” value worked out at 36 wt. %, the “Solubility of E-517 (Avobenzone)” value is 19 wt. %, the “Solubility of BEMT in the solvent” value amounted to 23 wt. % and the “Solubility of EHT in the solvent” value amounted to 8 wt. %. Moreover, the “Solubility of E-567 (Oxybenzone)” value in series [1] is reported as 27 wt. %.
With `CCCCC(=O)OCCc1ccccc1` [2-phenylethyl pentanoate, 2-Phenylethyl Pentanoate], in series [2] (first (longer wavelength) band), the “ε of BEMT at λmax” value is listed as “(48,000)”, the “λmax of BEMT” value was determined as 345, the “ε of E-517 at λmax” value is “(34,100)” and the “λmax of E-517” value is 359. In series [2] (first (longer wavelength) band), the “ε of E-567 at λmax” value is “(9,600)” and the “λmax of E-567” value is listed as 327. In series [2] (setting [3]), the “ε of BEMT at λmax” value is recorded as “(42,900)”, the “λmax of BEMT” value was 312, the “ε of E-567 at λmax” value is “(14,300)” and the “λmax of E-567” value amounted to 287. Besides, in series [2] (setting [3]), the “ε of EHT at λmax” value is “(123,000)”, the “λmax of EHT” value came out at 312, the “ε of MBC at λmax” value is “(23,600)” and the λmax of MBC turned out to be 298 nm. Further, in series [1], the “Solubility of MBC in the solvent” value is listed as 41 wt. %, the “Solubility of E-517 (Avobenzone)” value is on record as 22 wt. %, the “Solubility of BEMT in the solvent” value came out at 27 wt. % and the “Solubility of EHT in the solvent” value worked out at 10 wt. %. Further, the “Solubility of E-567 (Oxybenzone)” value in series [1] was 35 wt. %.
For `CCC(=O)OCCc1ccccc1` [2-phenylethyl propionate], in series [1], the “Solubility of MBC in the solvent” value is on record as 44 wt. %, the “Solubility of E-517 (Avobenzone)” value came to 25 wt. %, the “Solubility of BEMT in the solvent” value was 33 wt. % and the “Solubility of EHT in the solvent” value was 12 wt. %. Moreover, the “Solubility of E-567 (Oxybenzone)” value in series [1] was found to be 40 wt. %.
For `CCCC(=O)OCc1ccccc1` [benzyl butyrate], in series [1], the “Solubility of E-517 (Avobenzone)” value worked out at 24 wt. %, the “Solubility of BEMT in the solvent” value was determined as 32 wt. %, the “Solubility of EHT in the solvent” value is on record as 10 wt. % and the “Solubility of E-567 (Oxybenzone)” value turned out to be 39 wt. %.
In the case of `CC(O)C(=O)OCc1ccccc1` (stereo not shown) [benzyl lactate], in series [1], the “Solubility of MBC in the solvent” value came to 30 wt. %, the “Solubility of E-517 (Avobenzone)” value stood at 11 wt. %, the “Solubility of BEMT in the solvent” value was found to be 2 wt. % and the “Solubility of EHT in the solvent” value was 8 wt. %. Further, in series [1], the “Solubility of E-567 (Oxybenzone)” value worked out at 30 wt. %.
Regarding `CCCCCCCCOC(=O)OCc1ccccc1` [benzyl octyl carbonate], in series [1], the “Solubility of MBC in the solvent” value turned out to be 35 wt. %, the “Solubility of E-517 (Avobenzone)” value worked out at 17 wt. %, the “Solubility of BEMT in the solvent” value came out at 18 wt. % and the “Solubility of EHT in the solvent” value is listed as 6 wt. %. For the same compound, in series [1], the “Solubility of E-567 (Oxybenzone)” value came to 27 wt. %.
In the case of `CCCCCCCCOC(=O)OCCCCCCCC` [dioctyl carbonate, reference compound], in series [1], the “Solubility of MBC in the solvent” value is 29 wt. %, the “Solubility of E-517 (Avobenzone)” value was found to be 13 wt. %, the “Solubility of BEMT in the solvent” value came to 10 wt. % and the “Solubility of EHT in the solvent” value worked out at 7 wt. %. The “Solubility of E-567 (Oxybenzone)” value in series [1] came to 16 wt. %.
For `CC(C)CCCCCCCOC(=O)C(C)(C)C` [isodecyl neopentanoate, reference compound], in series [1], the “Solubility of MBC in the solvent” value is on record as 26 wt. %, the “Solubility of E-517 (Avobenzone)” value came out at 8 wt. %, the “Solubility of BEMT in the solvent” value is 5 wt. % and the “Solubility of EHT in the solvent” value is listed as 3 wt. %. In addition, the “Solubility of E-567 (Oxybenzone)” value in series [1] is 11 wt. %.
Turning to “C12-15 alkyl benzoate [reference compound]”, in series [2] (first (longer wavelength) band), the “ε of BEMT at λmax” value is “(43,800)”, the “λmax of BEMT” value stood at 347, the “ε of E-517 at λmax” value is on record as “(33,400)” and the “λmax of E-517” value came to 358. For the same compound, in series [2] (first (longer wavelength) band), the “ε of E-567 at λmax” value is reported as “(9,260)” and the “λmax of E-567” value is 328. Moreover, in series [2] (setting [3]), the “ε of BEMT at λmax” value is “(40,800)”, the “λmax of BEMT” value stood at 313, the “ε of E-567 at λmax” value was “(9,310)” and the “λmax of E-567” value is reported as 298. Besides, in series [2] (setting [3]), the “ε of EHT at λmax” value is “(117,000)”, the “λmax of EHT” value came out at 313, the “ε of MBC at λmax” value is “(22,000)” and the λmax of MBC was determined as 301 nm.
